In patent US12345641B2, “Fluorescence quenching immunoassay” (IDEXX Laboratories, Inc., priority 2020, dated 2025):

Columns and labels:
[1] = Absorption and emission spectra of fluoresceins and SDMA conjugates (Example 33); type: physicochemical; conditions: PBS buffer
Excerpt: The maximum absorption of fluorescein (Fl) in PBS buffer is at 489 nm and the maximum fluorescence emission is at 515 nm. When the fluorescein molecule is conjugated with an SDMA molecule via a —CH2NH— linker (i.e., to provide SDMA-Fl), its maximum absorption and emission are shifted to 495 nm and 525 nm, respectively. When the fluorescein molecule is substituted by fluorine at the 2′ and 7′ positions (i.e., to provide DFF) there is no any change in the maximum absorption and emission compared to unsubstituted fluorescein. When the fluorescein molecule is substituted by chloride at the 2′ and 7′ positions (i.e., to provide DCF) the maximum absorption and emission are red-shifted to 500 nm and 525 nm, respectively. Also conjugating DFF or DCF to SDMA via a —CH2NH— linker (i.e., to provide SDMA-DFF and SDMA DCF, respectively) results in the maximum absorption and emission being red-shifted. The maximum absorption and emission wavelengths of fluorescein (FL), 2′,7′-difluorofluorescien (DFF), 2′,7′-dichlorofluorescien (DCF), and their conjugates with SDMA via a —CH2NH— linker (i.e., SDMA-Fl (i.e., structure A3), SDMA-DFF, and SDMA-DCF) are listed in the Table provided below. The absorption spectra of DFF, SDMA-DFF, DCF, SDMA-DCF, Fl, and SDMA-FL are depicted in FIG. 25A and the emission spectra of SDMA-DFF, SDMA-DCF, Fl, and SDMA-FL are depicted in FIG. 25B.

[2] = tested on: anti-SDMA antibody; assay: Fluorescence quenching of SDMA tracers by anti-SDMA antibody or antibody-BHQ10 (Example 34); type: binding; conditions: for fluorescence quenched by adding anti-SDMA antibody: antibody not conjugated to a quencher
Method: Solutions of anti-SDMA antibody or anti-SDMA antibody conjugated to BHQ10 (4 eq.) in phosphate buffered saline (PBS) were prepared at concentrations of 0, 0.25, 0.5, 1, 2, 4, 8, and 16 μM (antibody solution). Solutions of an SDMA fluorescent tracer (i.e., SDMA-Fl, SDMA-DFF, or SDMA-DCF) in PBS were prepared at a concentration of 100 nM (tracer solution). 50 μL of antibody solution and 50 μL of tracer solution were combined on a 96-well UV plate and incubated for 30 min. at room temperature. […] The results are depicted in FIGS. 26 and 27.

[3] = tested on: antibody to SDMA; assay: Fluorescence decrease of tracer A3 on complexing with anti-SDMA antibody conjugated to BHQ10 (FIG. 23); type: binding
Excerpt: The decrease in fluorescence of a fluorescent tracer when it forms a complex with a binding partner that is conjugated to a quencher is a function of the equivalents of quencher molecules that are conjugated to the binding partner. The more quencher molecules conjugated to the binding partner, the greater the decrease in fluorescence. This is depicted in FIG. 23 as a plot of fluorescence vs. ratio of antibody:fluorescent tracer for antibody that is conjugated to 2, 4, 6, and 8 BHQ10 quencher molecules.

[4] = tested on: anti-penicillin polyclonal antibody; assay: Fluorescence of beta lactam-fluorescein conjugates with anti-penicillin antibody (Example 25); type: binding; conditions: tracer and antibody 200 nM
Method: Beta lactam antibiotics conjugated to fluorescein (i.e., AMO-FITC, AMO-F, AMP-F, and CEF-F) in PBS (400 nM, 100 μL) were mixed with either anti-penicillin or anti-cefotaxime polyclonal antibody (400 nM, 100 μL, commercially available from Novus Biologicals, LLC of Centennial, CO) in the absence of and in the presence of free beta-lactam antibiotic (ampicillin (400 nM) was added to AMP-F and cefotaxime (400 nM) was added to CEF-F) in a 96 well black assay plate. […] The solutions were incubated at room temperature for 5 min and the fluorescence intensity measured.

[5] = tested on: Cy5 conjugated antibody (Ab-Cy5, anti-T4-Mab); assay: Fluorescence quenching of T4-F by Ab-Cy5 (Example 23); type: binding
Method: T4-F was dissolved in DMSO (1 mM) and diluted with PBS to provide a stock solution (4 μM). A series of PBS solutions of Cy5 conjugated antibody (Ab-Cy5, made as in Example 12) having Ab-Cy5 concentrations ranging from 0 to 400 nM were prepared by serial dilution. In the wells of a 96 well black assay plate was combined T4-F in PBS (5 μL) and a serially diluted Ab-Cy5 solution (95 μL) and the plate shaken for 30 min at room temperature.

[6] = tested on: anti-sulfadimethoxine monoclonal antibody; assay: Fluorescence of SDM-F or SDM-Su-F with anti-sulfadimethoxine monoclonal antibody (Example 26); type: binding
Method: SDM-F or SDM-Su-F in PBS (400 nM, 100 μL) was mixed with anti-sulfadimethoxine monoclonal antibody (400 nM, 100 μL, commercially available from Genway Biotech of San Diego, CA) in the absence of and the presence of sulfadimethoxine (SDM) (400 nM). The resulting solutions were incubated at room temperature for 5 min and the fluorescence intensity then measured.

[7] = tested on: anti-T4 antibody; assay: Maximum percentage fluorescence quenching of T2-F, T3-F, T4-F by anti-T4 antibody with and without quencher label (Example 27 table); type: binding
Method: In another experiment, tracer T2-F, T3-F, or T4-F was dissolved in DMSO to provide a DMSO solution at a tracer concentration of 1 mM. The DMSO solution was then diluted with phosphate buffered saline (“PBS”) to provide a stock solution of each tracer at a concentration of 10 μM. Monoclonal anti-T4-Mab or anti-T4-Mab conjugated to a quencher (Cy3-Ab, IRdyeQC1-Ab, Cy5-Ab, BHQ1-Ab) were serially diluted in PBS to provide solutions having an Anti-T4-Mab or anti-T4-Mab conjugated to quencher at concentration ranging from 0 to 2 μM. In a 96 well black assay plate containing the serially diluted Anti-T4-Mab or anti-T4-Mab conjugated to quencher (95 μL) was added the tracer T2-F, T3-F, or T4-F solution (5 μL), mixed well, and incubated for 30 min and the fluorescence intensities then recorded at an excitation wavelength of 485 nm and an emission wavelength of 520 nm. The results of maximum percentage fluorescence quenching for different tracers and quencher-modified antibodies are provided in the following Table: […]

[8] = tested on: Monoclonal anti-NT-proBNP antibody (ADX-15 Mab); assay: Fluorescence quenching of canine NT-proBNP peptide-Fl/DFF conjugates by anti-NT-proBNP Mab and Ab-BHQ10 (Example 52); type: binding; conditions: No = No Quenching
Method: NT-proBNP peptide-fluorescein (Fl) or -difluorofluorescein (DFF) conjugates were dissolved in DMSO (0.4 mM) and diluted with PBS to provide a stock solution (100 nM). Monoclonal anti-NT-proBNP antibody (ADX-15 Mab, IDEXX Laboratories Inc. of Westbrook, ME) (6.84 mg/ml) was serially diluted in PBS buffer to provide solutions having an antibody concentration ranging from 0 to 800 nM in PBS. In a 96 well black assay plate containing the serially diluted antibody solution (50 μL) was added the P1-Fl or P1-DFF, or other peptide-Fl or Peptide-DFF solution (50 μL), mixed well, incubated for 30 min and the fluorescence intensities recorded (excitation at 485 nm and emission at 520 nm). The results are provided in FIG. 47, FIG. 48, and Table 2.

[9] = tested on: anti-NT-proBNP-Mab; assay: Canine NT-proBNP peptide P1 dose response in PBS and serum (Example 52); type: binding
Method: A mixture of NT-proBNP P1-Fl or P1-DFF in PBS (100 nM, 25 μL) and anti-NT-proBNP-Mab in PBS (100 nM, […]) were incubated at room temperature for 30 min in the wells of a 96 well black assay plate. A series of NT-proBNP peptide P1 standard solutions in PBS or charcoal stripped serum having peptide or protein concentrations ranging from 0 to 320 nM (50 μL) were then added to the mixtures of P1-Fl or P1-DFF and anti-NT-proBNP Mab in PBS. The plate was then incubated for 30 min at room temperature and the fluorescence intensities recorded at excitation at 485 nm and emission at 520 nm. The results are shown in FIG. 49, FIG. 50, FIG. 51, and FIG. 52.

[10] = tested on: anti-NT-proBNP Mab; assay: Canine NT-proBNP full length protein dose response (Example 52); type: binding
Method: A mixture of NT-proBNP P1-Fl or P1-DFF in PBS (200 nM, 10 μL) and anti-NT-proBNP Mab in PBS (200 nM, 10 μL) were incubated at room temperature for 30 min in the wells of a 96 well black assay plate. A series of NT-proBNP peptide P1 standard solutions in PBS having NT-proBNP full length protein (lyophilized powder synthesized by New England Biolabs of Ipswich, MA) at concentrations ranging from 0 to 320 nM (80 μL) were then added to the mixtures of P1-Fl or P1-DFF and anti-NT-proBNP Mab in PBS. The plate was then incubated for 30 min at room temperature and the fluorescence intensities recorded at an excitation of 485 nm and an emission of 520 nm.

## C/N=C(\NC)NCCC[C@@H](N)C(=O)NCc1c(O)ccc2c(-c3ccccc3C(=O)O)c3ccc(=O)cc-3oc12 (stereo in doubt) [SDMA-Fl]
[1]
  Max Absorption: 495 nm
  Max Emision: 525 nm
[2]
  fluorescence quenched by adding anti-SDMA antibody: about 30%
[3]; antibody conjugated to 2 equivalents of BHQ10
  maximum decrease in fluorescence: about 50%
[3]; antibody conjugated to 8 equivalents of BHQ10
  maximum decrease in fluorescence: about 70%

## CC1(C)SC2C(NC(=O)C(NCc3c(O)ccc4c(-c5ccccc5C(=O)O)c5ccc(=O)cc-5oc34)c3ccc(O)cc3)C(=O)N2C1C(=O)O (stereo not shown) [AMO-F, Amoxicillin-Fluorescein]
[4]
  fluorescence quenching by anti-penicillin antibody: quenched

## CC1(C)SC2C(NC(=O)C(NC(=S)Nc3ccc(-c4c5ccc(=O)cc-5oc5cc(O)ccc45)c(C(=O)O)c3)c3ccc(O)cc3)C(=O)N2C1C(=O)O (stereo not shown) [AMO-FITC]
[4]
  fluorescence quenching by anti-penicillin antibody: not quenched

## CC1(C)SC2C(NC(=O)C(NCc3c(O)ccc4c(-c5ccccc5C(=O)O)c5ccc(=O)cc-5oc34)c3ccccc3)C(=O)N2C1C(=O)O (stereo not shown) [AMP-F, Ampicillin-Fluorescein]
[4]
  fluorescence quenching by anti-penicillin antibody: quenched

## CCN1/C(=C/C=C/C=C/C2=[N+](CCCCCC(=O)O)c3ccc(S(=O)(=O)O)cc3C2(C)C)C(C)(C)c2cc(S(=O)(=O)[O-])ccc21 [Cy5, reference compound]
[5]
  quenching of T4-F fluorescence by Cy5 alone (not conjugated to Anti-T4-Mab): did not quench fluorescence

## COc1cc(NS(=O)(=O)c2ccc(NCc3c(O)ccc4c(-c5ccccc5C(=O)O)c5ccc(=O)cc-5oc34)cc2)nc(OC)n1 [SDM-F, Sulfadimethoxine-Fluorescein]
[6]
  amount of quenching compared to SDM-Su-F: greater amount of quenching
  fluorescence quenching by anti-sulfadimethoxine monoclonal antibody: quenched

## COc1cc(NS(=O)(=O)c2ccc(NC(=O)CCC(=O)NCc3c(O)ccc4c(-c5ccccc5C(=O)O)c5ccc(=O)cc-5oc34)cc2)nc(OC)n1 [SDM-Su-F, Sulfadimethoxine-Succinic-Fluorescein]
[6]
  fluorescence quenching by anti-sulfadimethoxine monoclonal antibody: quenched

## CNC(=NCCCC(N)C(=O)NCc1c(O)c(F)cc2c(-c3ccccc3C(=O)O)c3cc(F)c(=O)cc-3oc12)NC (stereo not shown) [SDMA-DFF]
[1]
  Max Absorption: 437 nm
  Max Emision: 525 nm
[2]; anti-SDMA antibody conjugated to BHQ10 (4 eq.)
  quenching efficiency in comparison with SDMA-Fl: slightly greater
[2]
  fluorescence quenched by adding anti-SDMA antibody: about 50%

## O=C(O)c1ccccc1-c1c2ccc(=O)cc-2oc2c(CNC(Cc3cc(I)c(Oc4cc(I)c(O)c(I)c4)c(I)c3)C(=O)O)c(O)ccc12 (stereo not shown) [T4-F]
[5]; ratio of T4-F: Ab-Cy5 of about 1:1
  quenching efficiency: about 70%
[7]; anti-T4-Mab conjugated to BHQ1
  Percentage of fluorescence quenching, BHQ1-Ab: No
[7]; anti-T4-Mab conjugated to Cy5
  Percentage of fluorescence quenching, Cy5-Ab: 31%
[7]; anti-T4-Mab without quencher
  Percentage of fluorescence quenching, Ab: No

## AEQLALEPLHRS [P1, canine NT-proBNP peptide]
[8]; NT-proBNP peptide-difluorofluorescein conjugate, mAb-BHQ10, molar ratio of 1:1
  Percentage Fluorescence Quenching, DFF Conjugate, Ab-BHQ10: 64.7%
[8]; NT-proBNP peptide-difluorofluorescein conjugate, molar ratio of 1:1
  Percentage Fluorescence Quenching, DFF Conjugate, Ab: 63.3%
[8]; NT-proBNP peptide-fluorescein conjugate, Ab/Conjugate molar ratio of 1:1
  Percentage Fluorescence Quenching, F1 Conjugate, Ab: 39.4%
[8]; NT-proBNP peptide-fluorescein conjugate, mAb-BHQ10, molar ratio of 1:1
  Percentage Fluorescence Quenching, F1 Conjugate, Ab-BHQ10: 40.2%
[9]; PBS, mixture of P1-Fl or P1-DFF with Ab or Ab-BHQ10
  fluorescence intensity as a function of NT-proBNP peptide P1 concentration: a dose response was observed
[9]; charcoal stripped serum, P1-Fl or P1-DFF
  dose response of P1 peptide in serum: produced a dose response

B1: full length NT-proBNP protein: canine NT-proBNP, SEQ ID NO: 14 (protein, listed as Canis familiaris)
chain: HPLGGRSPASEASEASEASGLWAVQELLGRLKDAVSELQAEQLALEPLHRSHSPAEAPEAGGTPRGVLAPHDSVLQALR
[10]; P1-Fl/Ab or P1-DFF/Ab
  dose response of full length NT-proBNP spiked into charcoal stripped serum: dose response was also observed
[10]; PBS, P1-Fl/Ab or P1-DFF/Ab at 1:1
  fluorescence intensity as a function of full length NT-proBNP protein concentration: a dose response was observed
